In patent US9352010B2, “Treatment of HIV-1 infection and AIDS” (The J. David Gladstone Institutes, priority 2011, dated 2016):
Residues, ends and D or L forms follow the SMILES beside them. *: point of attachment. Cbz = O=C(OCc1ccccc1)*; CH2F = FC*

What was measured:
caspase-1 = caspase-1 (Homo sapiens, UniProt P29466); settings: cited from earlier work
caspase-4 = caspase-4 (Homo sapiens, UniProt P49662); settings: read-out: Ki against caspase-4; cited from earlier work
[1] = test system: transient ischemia in rat; settings: cited from earlier work
human caspases = settings: irreversible broad-spectrum; cited from earlier work
[2] = test system: other classes of proteases or other enzymes or receptors; settings: cited from earlier work
[3] = test system: CI/WR (cold ischemia/warm reperfusion)-induced apoptosis and injury in the liver; settings: in vivo; cited from earlier work
[4] = test system: patients with hepatic impairment; settings: phase I; cited from earlier work
[5] = test system: patients with chronic Hepatitis C; settings: oral or intravenous, 5 mg to 400 mg daily; cited from earlier work
CFSE-labeled CD4 T-cells = type: cell-based, human
Experimental: (A) Experimental strategy to assess indirect cell killing in HIV-1-infected human lymphoid cultures. Fresh human tonsil tissue from a single donor is processed into HLAC, and then separated into two fractions. One fraction is challenged with HIV-1 and cultured for 6 days, allowing viral spread. On day 5, the uninfected fraction is treated with AZT (5 μM) and labeled with CFSE (1 μM). On day 6, the infected and CFSE-labeled (i.e., uninfected) cultures are mixed and co-cultured in the presence of AZT. […] After 6 days of co-culturing, the number of viable CFSE-positive cells is determined by flow cytometry. (B) Flow cytometry analysis of the mixed HLACs. Indirect killing is determined by gating on live CFSE-positive cells in the mixed cultures. Effector cells are either infected or uninfected cells. […] CFSE-labeled cells mixed with uninfected or infected cells were cultured in the presence of 5 μM AZT alone or together with 250 nM AMD3100. Data represent live CFSE-positive cells 6 days after co-culture with infected or uninfected effector cells. […] The absolute numbers of viable CFSE-positive CD4 and CD8 T-cells and B cells were determined. Percentages are normalized to the number of viable CFSE-positive cells co-cultured with uninfected cells in the presence of AZT, as depicted by (*). Error bars represent standard deviations of three samples from the same donor. […] See also FIG. 3.
Human tonsil or splenic tissues from routine tonsillectomies were obtained from the National Disease Research Interchange and the Cooperative Human Tissue Network and processed as previously described (Jekle et al., 2003, J Virol 77:5846-5854). In brief, tonsils or spleen were minced, passed through a 40-μm cell strainer, and cultured in 96-well U-bottomed polystyrene plates (2×10^6 cells/well) in medium (200 μl/well) consisting of RPMI 1640 supplemented with 15% heat-inactivated fetal bovine serum, 100 μg/ml gentamicin, 200 μg/ml ampicillin, 1 mM sodium pyruvate, 1% nonessential amino acids (Mediatech), 2 mM L-glutamine, and 1% fungizone (Invitrogen). All HIV-1 infections were carried out with 20-50 ng of HIV-1 p24^gag. Cells were incubated with the virus for 12-16 h, washed extensively, and supplemented with fresh medium. After day 5, infections were monitored by measuring p24gag levels in the culture medium using a FLAQ assay (Hayden et al., 2003, AIDS 17:629-631). Infected and uninfected cultures were manipulated as described for individual experiments. In “indirect killing” assays, unless otherwise stated, drugs were used at the following concentrations: 5 μM AZT; 250 nM AMD3100; 10 μg/ml T20; 100 nM Efavirenz; 1 μM Nevirapine; 30 μM Raltegravir; 60 μM 118-D-24; 5 μM Amprenavir; 5 μM Saquinavir; 5 μM Indinavir. CFSE-labeled cells were activated with PHA (5 μg/ml) and IL-2 (20 ng/ml) 2 days before mixing with effector cells.
Uninfected cells (5×10^6/ml) were labeled with 1 μM CFSE (Molecular Probes C1157), treated with 5 μM AZT for 24 h, and co-cultured with effector cells. CFSE readily diffuses into cells, where intracellular esterases cleave the acetate groups, converting it to a fluorescent, membrane-impermeable dye.

IL-1β = experiment: Release of 17-kDa IL-1β from isolated tonsillar CD4 T-cells (ionophore stimulus); type: cell-based, human; settings: nigericin 10 μM
Experimental: For stimulating the processing and secretion of IL-1, CD4 T-cells were isolated from HLACs by positive selection and treated with 0.5 μM PMA ([…], Calbiochem Cat. #524400) for 6 hours at 37° C. PMA induces large intracellular stores of the 35 kDa pro-IL-1β. Cells were then washed with PBS and treated with 10 μM nigericin (Sigma, Cat. # N7143) overnight at 37° C. The potassium ionophore nigericin mediates an elecroneutral exchange of intracellular K^+ ions for extracellular protons, providing a second inflammatory stimulus, which results in the maturation and release of the bioactive 17 kDa IL-1β(Perregaux et al., 1992, J Immunol 149:1294-1303; Perregaux and Gabel, 1994, J Biol Chem 269:15195-15203).
Isolated tonsillar CD4 T-cells were treated overnight with nigericin (10 μM) to provide a second inflammatory stimulus, resulting in maturation and release of bioactive 17-kDa IL-1β. Supernatants from the cell cultures were subjected to SDS-PAGE and immunoblotting. 17-kDa IL-1β was released after treatment with nigericin, but not with calcium ionophore A23187 or the nonspecific cation ionophore monensin. Thus, while these cells are primed, they must receive the appropriate proinflammatory signal for pro-IL-1β processing and release. […]

[6] = test system: CD4 T cells in HIV-1 (NL4-3)-infected HLACs; experiment: CD4 T-cell death in HIV-1-infected HLACs, viable CD4 T cells by flow cytometry; type: cell-based, human; settings: FIG. 15, 4 different donors
[7] = test system: AIM2 (Absent in melanoma-2) inflammasome; settings: by preventing ASC oligomerisation; cited from earlier work
human PBMCs = settings: cited from earlier work
[8] = test system: murine models of inflammatory disease; settings: cited from earlier work
[9] = test system: CD4 T cells in HIV-1 (NL4-3)-infected HLACs; experiment: CD4 T-cell death in HIV-1-infected HLACs, viable CD4 T cells by flow cytometry; type: cell-based, human; settings: 3 days
Experimental: HLACs were left uninfected or infected with HIV-1 (NL4-3 clone) in the presence of AZT, efavirenz, AMD3100, or caspase inhibitors (20 μM each), as indicated in FIG. 16. After 3 days, the percentages of viable CD4 T cells in the cultures were determined by flow cytometry.
HLACs were left uninfected or infected with NL4-3 in the presence of no drugs, efavirenz, AMD3100, or caspase inhibitors (50 μM or 100 μM), as indicated in FIG. 16B. After 3 days, the percentages of viable CD4 T cells in the cultures were determined by flow cytometry.

[10] = test system: lactate dehydrogenase (LDH) release; experiment: LDH release from HIV-1-infected HLACs (pyroptosis); type: cell-based, human; settings: caspase inhibitors 50 μM or 100 μM, 3 days, FIG. 16C
Experimental: Caspase-1 activation can lead to a highly inflammatory form of cell death called pyroptosis. To gain insight into how CD4 T cells die, it was determined whether HIV infection in CD4 T cells induce pyroptosis cell death, as measured by lactate dehydrogenase (LDH) release. HLACs were left uninfected or infected with NL4-3 in the presence of no drugs, efavirenz, AMD3100, or caspase inhibitors (50 μM or 100 μM), as indicated in FIG. 16C. After 3 days, the supernatants were assayed for the cytosolic enzyme lactate dehydrogenase (LDH) and the LDH released by dying cells was quantified.

caspase-1, sequence (P29466 120-297 limits assumed): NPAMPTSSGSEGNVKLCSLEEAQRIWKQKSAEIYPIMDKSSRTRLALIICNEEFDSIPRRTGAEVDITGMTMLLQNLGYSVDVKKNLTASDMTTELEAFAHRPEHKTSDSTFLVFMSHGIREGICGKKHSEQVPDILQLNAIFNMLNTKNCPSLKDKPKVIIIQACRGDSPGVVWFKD
caspase-1, sequence (P29466 317-404 limits assumed): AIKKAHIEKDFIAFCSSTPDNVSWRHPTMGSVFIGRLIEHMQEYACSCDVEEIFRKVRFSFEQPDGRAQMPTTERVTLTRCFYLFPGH
caspase-4, sequence (P49662 81-270 limits assumed): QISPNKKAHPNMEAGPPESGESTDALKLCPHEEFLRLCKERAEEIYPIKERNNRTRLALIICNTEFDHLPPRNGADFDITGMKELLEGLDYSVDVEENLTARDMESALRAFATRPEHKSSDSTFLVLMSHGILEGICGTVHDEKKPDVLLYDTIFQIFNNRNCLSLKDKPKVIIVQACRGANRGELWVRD
caspase-4, sequence (P49662 290-377 limits assumed): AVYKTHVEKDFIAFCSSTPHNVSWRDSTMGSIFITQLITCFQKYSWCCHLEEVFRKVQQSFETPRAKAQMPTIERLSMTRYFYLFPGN

**Q.** Which “selectivity for caspase 1 and caspase-4 against other caspases” value (caspase-1) does the source give for `O=C[C@H](CC(=O)O)NC(=O)[C@@H]1CCCN2C(=O)CC[C@H](NC(=O)c3nccc4ccccc34)C(=O)N12` [VRT-018858] here?
**A.** > 100 fold

**Q.** And the Ki (caspase-1; read-out: Ki against caspase-1)?
**A.** 1.3 nM

**Q.** What about the Ki (caspase-4) of the same compound?
**A.** 0.4 nM

**Q.** And the “brain damage induced by transient ischemia” value [1]?
**A.** markedly reduced brain damage

**Q.** What does the source list for `C[C@H](NC(=O)C(=O)Nc1ccccc1C(C)(C)C)C(=O)N[C@@H](CC(=O)O)C(=O)COc1c(F)c(F)cc(F)c1F` [IDN-6556]?
**A.** caspase inhibition spectrum (human caspases): activity against all tested human caspases; inhibition of other classes of proteases or other enzymes or receptors [2]: no inhibition; CI/WR-induced apoptosis and injury in the liver and other organs [3]: reduced CI/WR (cold ischemia/warm reperfusion)-induced apoptosis and injury; tolerability [4]: well tolerated; efficacy (aminotransferase activity) [5]: efficacious; tolerability [5]: well tolerated

**Q.** Which “death of abortively infected CD4 T-cells with caspase inhibitors” value (CFSE-labeled CD4 T-cells; 20 μM caspase inhibitor, AZT 5 μM) does the source give for `COC(=O)C[C@H](NC(=O)[C@H](C)NC(=O)[C@@H](NC(=O)OCc1ccccc1)C(C)C)C(=O)CF` [Z-VAD-FMK, Z-Val-Ala-Asp(OMe)-Fluoro methyl ester] (Cbz-Val-Ala-Asp(OMe)-CH2F) here?
**A.** completely prevented

**Q.** What about the “nigericin-induced IL-1β release after pre-treatment with caspase inhibitor” value (IL-1β) of the same compound?
**A.** blocked

**Q.** What about the “death of infected CD4 T-cells” value [6] of the same compound?
**A.** inhibit the death of infected CD4 T-cells

**Q.** For `CC(C)(O)c1coc(S(=O)(=O)NC(=O)Nc2c3c(cc4c2CCC4)CCC3)c1` [CRID3], which AIM2 inflammasome [7] is on record?
**A.** inhibited

**Q.** Which IL-1β secretion (human PBMCs; Stack et al.) does the source give for `CCO[C@@H]1OC(=O)C[C@@H]1NC(=O)[C@@H]1CCCN1C(=O)[C@@H](NC(=O)c1ccc(N)c(Cl)c1)C(C)(C)C` [VX-765, (S)-1-((S)-2-{[1-(4-Amino-3-chloro-phenyl)-methanoyl]-amino}-3,3-dimethyl-butanoyl)-pyrrolidine-2-carboxylic acid ((2R,3S)-2-ethoxy-5-oxo-tetrahydro-furan-3-yl)-amide] here?
**A.** blocked IL-1β secretion

**Q.** And the IC50 (human PBMCs; human PBMCs, read-out: IC50, release of LPS-induced IL-1β and IL-18)?
**A.** ~700 nM

**Q.** And the inflammatory response [8]?
**A.** reduces inflammatory response

**Q.** Which “reduction of cell death” value (CFSE-labeled CD4 T-cells; 20 μM, specific inhibition of caspase-3) does the source give for `COC(=O)CC[C@H](NC(=O)[C@H](CC(=O)OC)NC(=O)OCc1ccccc1)C(=O)N[C@H](C(=O)N[C@@H](CC(=O)OC)C(=O)CF)C(C)C` [Z-DEVD-FMK] here?
**A.** 50%

**Q.** And the “CD4 T-cell population whose death was prevented” value ([9]; 20 μM, FIG. 16A)?
**A.** 50%

**Q.** What about the “CD4 T-cell death in HIV-infected cultures” value ([9]; caspase inhibitors 50 μM or 100 μM, FIG. 16B) of the same compound?
**A.** did not prevent the death

**Q.** And the “LDH release from HIV-1 infected cells” value [10]?
**A.** did not prevent the LDH release

**Q.** And the “death of infected CD4 T-cells” value [6]?
**A.** also inhibits death of infected CD4 T cells, however, not as efficient as caspase-1 inhibitors
